{
  "source": "patent US20230365590A1",
  "about": "“BIPHENYL COMPOUND AS IMMUNOMODULATOR, PREPARATION METHOD THEREFOR AND APPLICATION THEREOF” (SHENZHEN CHIPSCREEN BIOSCIENCES CO., LTD., priority 2020, published 2023)",
  "key": {"[1]": {"target": "PD-1/PD-L1 binding (recombinant human PD-L1-Fc fusion protein and His-PD-1 protein) (Homo sapiens (Human), UniProt Q9NZQ7)", "sequence (Q9NZQ7 19-239)": "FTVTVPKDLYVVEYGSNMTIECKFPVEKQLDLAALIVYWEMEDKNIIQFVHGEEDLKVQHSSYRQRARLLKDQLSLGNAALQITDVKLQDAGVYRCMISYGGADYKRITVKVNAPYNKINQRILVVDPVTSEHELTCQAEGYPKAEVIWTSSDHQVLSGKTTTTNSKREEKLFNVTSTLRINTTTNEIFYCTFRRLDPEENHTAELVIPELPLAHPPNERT", "assay": "In vitro inhibitory activity against PD-1/PD-L1 binding (HTRF)", "details": "read-out: IC50 for inhibiting PD-1/PD-L1 binding in vitro", "source_text": "Homogeneous time resolved fluorescence method (HTRF): This method uses the recombinant human PD-L1 protein fused with hFc tag and the recombinant human PD-1 protein fused with His tag, which are interacting ligands and receptors. When the anti-hFc antibody containing chelated Eu tag and the anti-His antibody containing XL665 fluorescein tag are used to bind with the above two corresponding tags respectively and are excited by 320 nm laser, energy can be transferred from Eu element to XL665 fluorescein due to ligand receptor binding, and the XL665 fluorescein is excited to emit light with a wavelength of 665 nm. When an inhibitor for inhibiting interaction of PD-L1 and PD-1 is added, the binding of the ligand and the receptor is destroyed, causing a long distance between Eu and XL665. As a result, the energy cannot be transferred, and the XL665 fluorescein will not be excited.\nExperimental Materials and Devices The recombinant human PD-1 protein with His tag (His-PD-1 protein, Cat #: 10377-H08H-50) and the recombinant human PD-L1-Fc fusion protein (PD-L1-Fc fusion protein, Cat #: 10084-H02H-100) were purchased from Sino Biological Inc., anti-hFc-Eu^3+ antibody and anti-His-XL665 antibody were purchased from Cisbio, and other related reagents such as a diluent buffer (diluent buffer 5 (Cat #: 62DL5DDC) and a detection buffer (PPI-European detection buffer, Cat #: 61DB9RDF) were purchased from Cisbio. Fluorescence detector Tecan (Spark 10M) was purchased from Tecan Company in Switzerland.\nThe experiment process was carried out according to the flow required in the operating manual of the test reagent. The process was as follows: • (1) Experiment preparation: A test compound was diluted to different concentration gradients with the dilution buffer (the highest final concentration in a 20 μL final reaction system was 10 μM). The His-PD-1 protein was diluted to 800 nM (the final concentration in the 20 final reaction system was 100 nM). The PD-L1-Fc fusion protein was diluted to 16 nM (the final concentration was 2 nM). […] All tests were conducted by use of multiple holes. • (4) The fluorescence detector Tecan (Spark 10M) was used to detect the fluorescence signal of each hole. The excitation wavelength was 320 nm, and the emission wavelengths for detection were 620 nm and 665 nm, respectively. The strength of PD-1/PD-L1 binding refers to a fluorescence signal ratio Em665/Em620. • (5) Calculation formula of binding inhibition rate of test compound: Inhibition rate (%)=[1−(fluorescence signal ratio of detected hole−fluorescence signal ratio of 100% inhibition negative control)]/(fluorescence signal ratio of 0% inhibition positive control−fluorescence signal ratio of 100% inhibition negative control)×100%. The 50% inhibition concentration (IC50) was calculated after the PD-1/PD-L1 binding inhibition rates of the test compound with different concentration gradients were calculated respectively."}, "[2]": {"system": "PD-1/PD-L1 mediated inhibitory signal to T cell activation (CHO-PD-L1-CD3L cells and Jurkat-PD-1-NFAT cells)", "assay": "Blocking of PD-1/PD-L1 mediated inhibitory signal to T cell activation at cell level (NFAT luciferase reporter, co-culture)", "type": "cell-based", "details": "Homo sapiens, CHO-PD-L1-CD3L / Jurkat-PD-1-NFAT co-culture, 6 h", "procedure": "In order to test the effect of interaction between PD-1 and PD-L1 on T cell activation signal in immune response, CHO-PD-L1-CD3L cells stably expressing human PD-L1 molecule and anti-CD3 single-chain antibody (ScFv) and Jurkat-PD-1-NFAT cells stably expressing human PD-1 molecule and NFAT reporter gene were constructed. When two kinds of cells are incubated together, anti-CD3 ScFv on the CHO cell surface and membrane CD3 molecule of Jurkat cell combine to transmit an activation signal into Jurkat cell. However, due to the binding of PD-L1 on the CHO cell surface and PD-1 molecule on the Jurkat cell surface at the same time, a signal for inhibiting activation is transmitted inward, so that luciferase reporter gene cannot be expressed. When an immunocheckpoint antibody or small-molecule inhibitor is added, the binding of PD-1 and PD-L1 is blocked, the NFAT pathway activated by CD3 ScFv antibody and CD3 cross-linking mediated T cell activation signal is no longer affected by the inhibitory signal, and the downstream luciferase reporter gene starts to be expressed. Chemiluminescence signals proportional to reporter gene activation can be detected by adding a catalytic substrate.\nCHO-PD-L1-CD3L cells expressing human PD-L1 molecule and anti-CD3 single-chain antibody (ScFv) and Jurkat-PD-1-NFAT cells stably expressing human PD-1 molecule and NFAT reporter gene were all independently constructed and presented by Dr. Chen Bo (KeyMed Biosciences (Chengdu) Co., Ltd. Puromycin (Cat # 540411) and Hygromycin B (Cat # V900372) for stable culture of transfected cells were purchased from Sigma, PMA (Cat # P1585) was purchased from Sigma, and the anti human PD-L1 antibody (Cat # GMP-A066) was purchased from Novoprotein Company. The Luciferase substrate solution (Cat # E6485) and the luciferase-specific cell lysate 5×(Cat # E1531) were purchased from Promega company. The fluorescence detector Tecan (Spark 10M) was purchased from Tecan Company in Switzerland.\nMain Process of Experiment • (1) On the day before the experiment, 100 μL of CHO-PD-L1-CD3L cells (about 4×10^4 cells/well) were inoculated at 37° C. overnight in a 96-well cell culture plate, and the culture medium was DMEM/F12 containing 10% FBS, 8 μg/mL Puromycin and 200 μg/mL Hygromycin B. • (2) The test compound was diluted with 0.1% PBST to obtain solutions with different concentration gradients, and then added into 96-well plates and incubated for 30 min in advance. The RPMI 1640 complete medium containing 10% FBS, 8 μg/mL Puromycin and 200 μg/mL Hygromycin B was used to adjust the Jurkat-PD-1-NFAT cell count to 2×10^5 cells/mL, and 100 ng/mL PMA (10 mg/mL storage solution prepared with DMSO) was added to amplify the T cell activation signal. 100 μL of the Jurkat-PD-1-NFAT cells were added into each well of the 96-well plates for co-culture. • (3) During the test reaction, control groups were set, including the solvent control without adding the test compound and the positive control with the addition of the […] in the experimental system. All tests were conducted by use of multiple holes. • (4) Incubation was continued at 37° C. for 6 h, 40 μL of 5×cell lysate was added directly, the solution was mixed well and placed at room temperature for 10 min to completely lyse cells. 50 μL of lysed cell solution was transferred to a fluorescence detection plate, 30 μL of luciferase substrate solution was then added, and the chemiluminescence detection program was immediately selected on the fluorescence detector for determination. • (5) Calculation formula of the inhibition rate of the test compound against T cell activation signal at the cell level: The inhibition rate against T cell activation signal (%)=(original chemiluminescence value of the test hole−solvent control)/(the highest original chemiluminescence value determined in the compound test hole−solvent control)×100%. […]"}},
  "data": [
    {"smiles": "COCC12CCC(CCN3CCc4c(nc(C(=O)Nc5cccc(-c6cccc(NC(=O)c7nc8c(n7C)CCN(CCC79CCC(C(=O)O)(CC7)C9)C8)c6Cl)c5F)n4C)C3)(CC1)C2", "note": "[Compound I-9, 4-(2-(2-((2-chloro-2′-fluoro-3′-(5-(2-(4-(methoxymethyl)bicyclo[2.2.1]heptan-1-yl)ethyl)-1-methyl-4,5,6,7-tetrahydro-1H-imidazo [4,5-c]pyridine-2-carboxamido)-[1,1′-biphenyl]-3-yl)carbamoyl)-1-methyl-1,4,6,7-tetrahydro-5H-imidazo[4,5-c]pyridin-5-yl)ethyl)bicyclo[2.2.1]heptane-1-carboxylic acid]", "values": [
      {"measurement": "IC50", "setting": "[1]", "result": 0.88, "unit": "nM"},
      {"measurement": "EC50", "setting": "[2]", "result": 6.79, "unit": "nM"}
    ]},
    {"smiles": "Cn1c(C(=O)Nc2cccc(-c3cccc(NC(=O)c4nc5c(n4C)CCN(CCC46CCC(C(=O)O)(CC4)C6)C5)c3Cl)c2F)nc2c1CCN(CCC13CCC(COC(F)F)(CC1)C3)C2", "note": "[Compound I-10, 4-(2-(2-((2-chloro-3′-(5-(2-(4-((difluoromethoxy)methyl)bicyclo[2.2.1]heptan-1-yl)ethyl)-1-methyl-4,5,6,7-tetrahydro-1H-imidazo[4,5-c]pyridine-2-carboxamido)-2′-fluoro-[1,1′-biphenyl]-3-yl)carbamoyl)-1-methyl-1,4,6,7-tetrahydro-5H-imidazo[4,5-c]pyridin-5-yl)ethyl)bicyclo[2.2.1]heptane-1-carboxylic acid]", "values": [
      {"measurement": "IC50", "setting": "[1]", "result": 1.13, "unit": "nM"},
      {"measurement": "EC50", "setting": "[2]", "result": 35.5, "unit": "nM"}
    ]},
    {"smiles": "COCC12CCC(CCN3CCc4c(nc(C(=O)Nc5cccc(-c6cccc(NC(=O)c7nc8c(n7C)CCN(CCC79CCC(C(=O)O)(CC7)C9)C8)c6Cl)c5C#N)n4C)C3)(CC1)C2", "note": "[Compound I-11, 4-(2-(2-((2-chloro-2′-cyano-3′-(5-(2-(4-(methoxymethyl)bicyclo[2.2.1]heptan-1-yl)ethyl)-1-methyl-4,5,6,7-tetrahydro-1H-imidazo[4,5-c]pyridine-2-carboxamido)-[1,1′-biphenyl]-3-yl)carbamoyl)-1-methyl-1,4,6,7-tetrahydro-5H-imidazo[4,5-c]pyridin-5-yl)ethyl)bicyclo[2.2.1]heptane-1-carboxylic acid]", "values": [
      {"measurement": "IC50", "setting": "[1]", "result": 1.94, "unit": "nM"},
      {"measurement": "EC50", "setting": "[2]", "result": 26.3, "unit": "nM"}
    ]},
    {"smiles": "COCC12CCC(CCN3CCc4c(nc(C(=O)Nc5cccc(-c6cccc(NC(=O)c7nc8c(n7C)CCN(CC79CCC(C(=O)O)(CC7)C9)C8)c6Cl)c5C)n4C)C3)(CC1)C2", "note": "[Compound I-12, 4-((2-((2-chloro-3′-(5-(2-(4-(methoxymethyl)bicyclo[2.2.1]heptan-1-yl)ethyl)-1-methyl-4,5,6,7-tetrahydro-1H-imidazo[4,5-c]pyridine-2-carboxamido)-2′-methyl-[1,1′-biphenyl]-3-yl)carbamoyl)-1-methyl-1,4,6,7-tetrahydro-5H-imidazo[4,5-c]pyridin-5-yl)methyl)bicyclo[2.2.1]heptane-1-carboxylic acid]", "values": [
      {"measurement": "IC50", "setting": "[1]", "result": 2.46, "unit": "nM"},
      {"measurement": "EC50", "setting": "[2]", "result": 38.3, "unit": "nM"}
    ]},
    {"smiles": "Cn1c(C(=O)Nc2cccc(-c3cccc(NC(=O)c4nc5c(n4C)CCN(CC46CCC(C(=O)O)(CC4)C6)C5)c3Cl)c2Cl)nc2c1CCN(CCO)C2", "note": "[Example 180]", "values": [
      {"measurement": "IC50", "setting": "[1]", "result": 4.62, "unit": "nM"},
      {"measurement": "EC50", "setting": "[2]", "result": 108, "unit": "nM"}
    ]}
  ]
}
